Results as given in patent publication US9040563B2, “Dual inhibitors of farnesyltransferase and geranylgeranyltransferase I” (H. Lee Moffitt Cancer Center and Research Institute, Inc., priority 2010, dated 2015).
Like-named read-outs stand apart in the source and are kept apart here.

How the values were obtained:
hFTase = hFTase (Homo sapiens, UniProt P49354+P49356); test: In vitro hFTase inhibition: incorporation of [3H]FPP into recombinant H-Ras-CVLS; assay type: biochemical; conditions: GGTase-I IC50 / hFTase IC50
[1] = system: geranylgeranylation of Rap1A; test: Whole cell inhibition of Rap1A processing (geranylgeranylation), immunoblot, oncogenic H-Ras-transformed NIH3T3 cells; assay type: cell-based, mouse; conditions: Mus musculus
Experimental: In vitro inhibition assays for FTase and GGTase-I were conducted by measuring the incorporation of [^3H]FPP and [^3H]GGPP into recombinant H-Ras-CVLS and H-Ras-CVLL, respectively, as previously described (Vogt, et al., Protein geranylgeranylation, not farnesylation, is required for the G1 to S phase transition in mouse fibroblasts. Oncogene, 1996, 13, 1991-1999). The in vivo inhibition of farnesylation and geranylgeranylation was determined based on the level of inhibition by synthetic compounds of H-Ras and Rap1A processing, respectively (Sun, et al., Both farnesyltransferase and geranylgeranyltransferase I inhibitors are required for inhibition of oncogenic K-Ras prenylation but each alone is sufficient to suppress human tumor growth in nude mouse xenografts. Oncogene, 1998, 16, 1467-1473). […] The separated proteins were transferred to nitrocellulose and immunoblotted using an anti-Ras antibody (Y13-258) or an anti-Rap1A antibody (SantaCruz Biotechnology, Santa Cruz, Calif.), respectively. Antibody reactions were visualized using either peroxidase-conjugated goat anti-rat IgG or goat anti-rabbit IgG (Jackson ImmunoResearch, West Grove, Pa.) and an enhanced chemiluminescence detection system.
Briefly, in vitro inhibition assays for hFTase and GGTase-I were carried out by measuring the incorporation of [^3H]FPP and [^3H]GGPP into recombinant H-Ras-CVLS and H-Ras-CVLL, respectively, as described previously (Vogt et al., Protein geranylgeranylation, not farnesylation, is required for G1 to S phase transition in mouse fibroblasts. Oncogene. 1996; 13:1991-1999). Whole cell inhibition of farnesylation and geranylgeranylation were determined based on the level of inhibition by synthetic compounds of H-Ras and Rap1A processing, respectively (Sun, et al., Both farnesyltransferase and geranylgeranyltransferase I inhibitors are required for inhibition of oncogenic K-Ras prenylation but each alone is sufficient to suppress human tumor growth in nude mouse xenografts. Oncogene. 1998; 16:1467-1473).

[2] = whole cells, oncogenic H-Ras-transformed NIH3T3, n = 3 unless stated, read-out: Rap1A processing IC50

Molecule | selectivity (ratio of GGTase-I to FTase IC50s) (hFTase) | IC50 [1, 2] | IC50 ([1]; NIH3T3, read-out: Rap1A processing IC50)
4-[{2-[Benzyl-(1-methyl-1H-imidazole-4-sulfonyl)-amino]-ethyl}-(1-methyl-1H-imidazol-4-ylmethyl)-amino]-benzamide [compound 13] | >2 | – | –
C=CCN(CCN(Cc1cncn1C)c1ccc(C#N)cc1)S(=O)(=O)c1cn(C)cn1 [1ab] | >14 | > 10 µM | –
Cn1cnc(S(=O)(=O)N(CCN(Cc2cncn2C)c2ccc(C#N)cc2)Cc2cccs2)c1 [1ak, [N-(Thiophen-2-ylmethyl), N-{2-[(4-cyanophenyl)-(3-methyl-3H-imidazol-4-ylmethyl)-amino]-ethyl}]1-methyl-1H-imidazole-4-sulfonamide] | 2.6 | > 10 µM | –
Cc1ccccc1CN(CCN(Cc1cncn1C)c1ccc(C#N)cc1)S(=O)(=O)c1cn(C)cn1 [1ao] | 15 | > 10 µM | –
Cc1cccc(CN(CCN(Cc2cncn2C)c2ccc(C#N)cc2)S(=O)(=O)c2cn(C)cn2)c1 [1ap] | 12 | > 10 µM | –
Cc1ccc(CN(CCN(Cc2cncn2C)c2ccc(C#N)cc2)S(=O)(=O)c2cn(C)cn2)cc1 [1aq] | – | – | > 10 µM
Cn1cnc(S(=O)(=O)N(CCN(Cc2cncn2C)c2ccc(C#N)cc2)Cc2cccc(C#N)c2)c1 [1ar] | – | > 10 µM | –
Cn1cnc(S(=O)(=O)N(CCN(Cc2cncn2C)c2ccc(C#N)cc2)Cc2cccc(-c3ccccc3)c2)c1 [1at] | 2.4 | > 10 µM | –
Cn1cnc(S(=O)(=O)N(CCN(Cc2cncn2C)c2ccc(C#N)cc2)Cc2ccc(-c3ccccc3)cc2)c1 [1au] | 4.3 | > 10 µM | –
Cn1cnc(S(=O)(=O)N(CCN(Cc2cncn2C)c2ccc(C#N)cc2)Cc2ccc(-n3cccc3)cc2)c1 [1av] | 15 | > 10 µM | –
Cn1cncc1CN(CCN(Cc1ccccc1)S(=O)(=O)c1ccccc1)c1ccc(C#N)cc1 [1d] | 7.6 | > 10 µM | –
Cn1cnc(S(=O)(=O)N(CCN(Cc2cncn2C)c2ccc(C#N)cc2Cl)CC2CCN(c3ncccn3)CC2)c1 [19a, [N-{2-[(2-Chloro-4-cyanophenyl)-(3-methyl-3H-imidazol-4-ylmethyl)-amino]-ethyl}, N-{N-(2-pyrimidinyl)-piperidin-4-ylmethyl}]1-methyl-1H-imidazole-4-sulfonamide] | >18 | – | –
Cn1cnc(S(=O)(=O)N(CCN(Cc2cncn2C)c2ccc(C#N)nc2)CC2CCN(c3ncccn3)CC2)c1 [19b] | >19 | – | –
Cn1cnc(S(=O)(=O)N(CCN(Cc2cncn2C)c2ccc(C#N)c(F)c2)CC2CCN(c3ncccn3)CC2)c1 [19e, [N-{2-[(3-Fluoro-4-cyanophenyl)-(3-methyl-3H-imidazol-4-ylmethyl)-amino]-ethyl}, N-{N-(2-pyrimidinyl)-piperidin-4-ylmethyl}]1-methyl-1H-imidazole-4-sulfonamide] | 41 | – | –
Cn1cnc(S(=O)(=O)N(CCN(Cc2cncn2C)c2ccc(C#N)cc2)Cc2ccsc2)c1 [compound 1ai, [N-(Thiophen-3-ylmethyl), N-{2-[(4-cyanophenyl)-(3-methyl-3H-imidazol-4-ylmethyl)-amino]-ethyl}]1-methyl-1H-imidazole-4-sulfonamide] | 14 | > 10 µM | –
Cn1cnc(S(=O)(=O)N(CCN(Cc2cncn2C)c2ccc(C#N)cc2)Cc2ccco2)c1 [compound 1aj, [N-(Furan-2-ylmethyl), N-{2-[(4-cyanophenyl)-(3-methyl-3H-imidazol-4-ylmethyl)-amino]-ethyl}]1-methyl-1H-imidazole-4-sulfonamide] | 15 | > 10 µM | –
Cn1cnc(S(=O)(=O)N(CCN(Cc2cncn2C)c2ccc(C(=O)OC(C)(C)C)cc2)Cc2ccccc2)c1 [compound 11, tert-Butyl 4-[{2-[benzyl-(1-methyl-1H-imidazole-4-sulfonyl)-amino]-ethyl}-(3-methyl-3H-imidazol-4-ylmethyl)-amino]-benzoate] | 0.9 | – | –
Cn1cnc(S(=O)(=O)N(CCN(Cc2cncn2C)c2ccc(C(=O)O)cc2)Cc2ccccc2)c1 [compound 12, 4-[{2-[Benzyl-(1-methyl-1H-imidazole-4-sulfonyl)-amino]-ethyl}-(3-methyl-3H-imidazol-4-ylmethyl)-amino]-benzoic acid] | 48 | – | –
Cn1cnc(S(=O)(=O)N(CCN(Cc2cncn2C)c2ccc(-c3ccccc3)cc2)Cc2ccccc2)c1 [compound 14, [N-Benzyl, N-{2-[(biphenyl-4-yl)-(3-methyl-3H-imidazol-4-ylmethyl)-amino]-ethyl}]1-methyl-1H-imidazole-4-sulfonamide] | 0.7 | – | –

Continued, in another order:

selectivity (ratio of GGTase-I to FTase IC50s) (hFTase) | IC50 [1, 2] | Molecule | IC50 ([1]; NIH3T3, read-out: Rap1A processing IC50)
>91 | – | Cn1cnc(S(=O)(=O)N(CCN(Cc2cncn2C)c2ccc(C#N)cn2)CC2CCN(c3ncccn3)CC2)c1 [19c, [N-{2-[(5-Cyanopyridin-2-yl)-(3-methyl-3H-imidazol-4-ylmethyl)-amino]-ethyl}, N-{N-(2-pyrimidinyl)-piperidin-4-ylmethyl}]1-methyl-1H-imidazole-4-sulfonamide] | –
>16 | – | Cn1cnc(S(=O)(=O)N(CCN(Cc2cncn2C)c2ncc(C#N)cn2)CC2CCN(c3ncccn3)CC2)c1 [19d, [N-{2-[(5-Cyanopyrimidin-2-yl)-(3-methyl-3H-imidazol-4-ylmethyl)-amino]-ethyl}, N-{N-(2-pyrimidinyl)-piperidin-4-ylmethyl}]1-methyl-1H-imidazole-4-sulfonamide] | –
>34 | – | Cn1cnc(S(=O)(=O)N(CCN(Cc2cncn2C)c2c(F)cc(C#N)cc2F)CC2CCN(c3ncccn3)CC2)c1 [19g, [N-{2-[(2,6-Difluoro-4-cyanophenyl)-(3-methyl-3H-imidazol-4-ylmethyl)-amino]-ethyl}, N-{N-(2-pyrimidinyl)-piperidin-4-ylmethyl}]1-methyl-1H-imidazole-4-sulfonamide] | –
18 | – | Cn1cnc(S(=O)(=O)N(CCN(Cc2cncn2C)c2c(F)c(F)c(C#N)c(F)c2F)CC2CCN(c3ncccn3)CC2)c1 [19h, [N-{2-[(2,3,5,6-Tetrafluoro-4-cyanophenyl)-(3-methyl-3H-imidazol-4-ylmethyl)-amino]-ethyl}, N-{N-(2-pyrimidinyl)-piperidin-4-ylmethyl}]1-methyl-1H-imidazole-4-sulfonamide] | –
11 | – | Cn1cnc(S(=O)(=O)N(CCCN(Cc2cncn2C)c2ccc(C#N)cc2)Cc2ccccc2)c1 [20a] | –
>10 | – | Cn1cnc(S(=O)(=O)N(Cc2ccccc2)[C@@H]2CCC[C@@H]2N(Cc2cncn2C)c2ccc(C#N)cc2)c1 [20b] | –
>15 | – | Cn1cnc(S(=O)(=O)N(Cc2ccccc2)[C@H]2CC[C@@H](N(Cc3cncn3C)c3ccc(C#N)cc3)C2)c1 [20d] | –
>156 | – | Cn1cnc(S(=O)(=O)N(CCN(Cc2cncn2C)c2ccc(C#N)cc2F)CC2CCN(c3ncccn3)CC2)c1 [compound 19f, [N-{2-[(2-Fluoro-4-cyanophenyl)-(3-methyl-3H-imidazol-4-ylmethyl)-amino]-ethyl}, N-{N-(2-pyrimidinyl)-piperidin-4-ylmethyl}]1-methyl-1H-imidazole-4-sulfonamide] | –
